# Data: US7973056B2, “Triazole derivative or salt thereof” (Fujifilm Finechemicals Co., Ltd, priority 2008, dated 2011)
# Tests used:
# [1] = system: Candida albicans TIMM 1623; test: Antifungal activity test (in vivo), mouse systemic infection model; conditions: for T/C (%): survival time of administration group / control group x100
# Procedure: With respect to compounds I-1, I-3 and I-6 obtained in Examples 1, 3 and 6 respectively, therapeutic effects at the time of subcutaneous administration of compounds I-1, I-3 and I-6 on a mouse systemic infection model by Candida albicans TIMM 1623 were tested.
# The test was carried out using 5 animals for each of the drug administration groups and Negative control group (sterile physiological saline administration group).
# Each of compounds I-1, I-3 and I-6 was dissolved in and diluted with dimethyl sulfoxide (DMSO; Wako Pure Chemical Industries, Ltd.) and then prepared into a predetermined concentration by diluting with sterile physiological saline.
# As the control experiment, Fluconazole (FLCZ, Flanos intravenous drip solution 100 mg; TOYAMA CHEMICAL CO, LTD.) diluted to a predetermined concentration with sterile physiological saline was used.
# On the next day of the receipt of animals, body weights of mice were measured and CP (crude protein) was intraperitoneally administered at a dose of 200 mg/kg based on the individual body weight, and then they were reared for 3 days.
# Cells of C. albicans TIMM 1623 cultured overnight at 35° C. on SDA (Sabouraud dextrose agar; Eiken Chemical Co., Ltd.) plate medium were suspended in sterile physiological saline and used as the Stock solution, and a portion thereof was diluted with 10% formalin (Wako Pure Chemical Industries, Ltd.). The number of cells in the diluted liquid was counted under a biological microscope using a hemocytometer, and then an inoculum was prepared by diluting the stock solution with sterile physiological saline (about 1.5×10^5 cells/ml). By inoculating 0.2 ml of this cell suspension through caudal vein, infection was induced. In this connection, the number of viable cells in the inoculum was verified by spreading the cell suspension optionally diluted with sterile physiological saline on an SDA plate medium and then culturing at 35° C. Each of the substances to be tested, control substance or sterile physiological saline was subcutaneously administered after 2 hours of the infection and for 3 days starting on the next day of infection once a day, a total of 4 times. After measuring individual body weight on the next day of infection, CP was again administered intraperitoneally at a dose of 100 mg/kg. The number of survived mice was observed and recorded for 14 days starting on the next day of infection.
# The results were shown in Table 3 below and FIGS. 1A to 1D. In the table, the administration dose of the compounds of the present invention and the comparative compound represents a mg amount per 1 kg of a mouse weight (mg/kg).
# Significant deference was tested, by 5% for both sides of the levels of significance, in accordance with the Kaplan-Meier method Logrank test (comparison of multiple groups), on the survival time distribution of each of the substances to be tested and control substance administration groups and sterile physiological saline administration group. SAS release 8.2 (SAS Institute Japan) was used in the Kaplan-Meier method Logrank test. (T/C(%)=[survival time of administration group (integrated value)/survival time of control group (integrated value)]×100)
# [2] = system: Trichophyton mentagrophytes ATCC 9533; test: Antifungal activity test (in vitro), MIC; type: cell-based; conditions: ATCC9533
# Procedure: (§1) Minimum inhibitory concentration (MIC) of each of the compounds obtained in Examples 1 to 12 was measured for respective fungi at MOS Pharm Service, by the methods described in Antimicrobial Agents and Chemotherapy, vol. 3, pp. 40-48 (1973), Antimicrobial Agents and Chemotherapy, vol. 33, pp. 215-222 (1989) and Antimicrobial Agents and Chemotherapy, vol. 38, pp. 2362-2368 (1994). The measuring conditions are shown in the following. In this case, Voriconazol was used as a comparative compound. Trichophyton mentagrophytes ATCC 9533; Cultured at 28° C. for 3 days using fluid Sabouraud medium, and this was used as a cell suspension. Each of the compounds of the invention was adjusted to a concentration of 1% by weight using dimethyl sulfoxide (DMSO) and a medium similar to the respective medium used in the above-mentioned fungal culture, having a final concentration of from 0.001 to 100 μg/ml, was prepared. Each of the inoculation cell suspensions prepared by the above-mentioned methods was inoculated onto this agar plate. […] In this connection, Voriconazol was used as the comparative compound C-1.
# [3] = system: Candida albicans ATCC 10231; test: Antifungal activity test (in vitro), MIC; type: cell-based; conditions: ATCC10231
# Procedure: as §1, with “Candida albicans” for “Trichophyton mentagrophytes”, “10231 and ATCC 44858;” for “9533;”, “37°” for “28°”, “20 hours” for “3 days”
# [4] = system: Cryptococcus neoformans ATCC 24067; test: Antifungal activity test (in vitro), MIC; type: cell-based; conditions: ATCC24067
# Procedure: as §1, with “Cryptococcus neoformans” for “Trichophyton mentagrophytes”, “24067, Pityrosporum ovale ATCC 38593;” for “9533;”, “37°” for “28°”, “2 day” for “3 days”
# [5] = system: Pityrosporum ovale ATCC 38593; test: Antifungal activity test (in vitro), MIC; type: cell-based; conditions: Malassezia furfur, ATCC38593
# Procedure: as §1, with “Cryptococcus neoformans” for “Trichophyton mentagrophytes”, “24067, Pityrosporum ovale ATCC 38593;” for “9533;”, “37°” for “28°”, “2 day” for “3 days”
# [6] = system: Aspergillus fumigatus ATCC 1028; test: Antifungal activity test (in vitro), MIC; type: cell-based; conditions: ATCC1028
# Procedure: Minimum inhibitory concentration (MIC) of each of the compounds obtained in Examples 1 to 12 was measured for respective fungi at MOS Pharm Service, by the methods described in Antimicrobial Agents and Chemotherapy, vol. 3, pp. 40-48 (1973), Antimicrobial Agents and Chemotherapy, vol. 33, pp. 215-222 (1989) and Antimicrobial Agents and Chemotherapy, vol. 38, pp. 2362-2368 (1994). The measuring conditions are shown in the following. In this case, Voriconazol was used as a comparative compound.
# Aspergillus fumigatus ATCC 1028; Cultured at 28° C. for 2 days using potato dextrose broth, and this was used as a cell suspension.
# Each of the compounds of the invention was adjusted to a concentration of 1% by weight using dimethyl sulfoxide (DMSO) and a medium similar to the respective medium used in the above-mentioned fungal culture, having a final concentration of from 0.001 to 100 μg/ml, was prepared. Each of the inoculation cell suspensions prepared by the above-mentioned methods was inoculated onto this agar plate. […] In this connection, Voriconazol was used as the comparative compound C-1.
# [7] = system: Microsporum canis ATCC 36299; test: Antifungal activity test (in vitro), MIC; type: cell-based; conditions: ATCC36299
# Procedure: as §1, with “compound. Microsporum canis” for “compound. Trichophyton mentagrophytes”, “ATCC 36299;” for “ATCC 9533;”, “at 30°” for “at 28°”, “for 2” for “for 3”
structure (smiles),measurement,setting,value
"OC(Cn1cncn1)(Cn1cncn1)c1ccc(F)cc1F [FLCZ, Fluconazole, reference compound]",survival rate,"[1]; 0.1 mg/kg s.c., day 0",100
same,survival rate,"[1]; 0.1 mg/kg s.c., day 1",100
same,survival rate,"[1]; 0.1 mg/kg s.c., day 2",100
same,survival rate,"[1]; 0.1 mg/kg s.c., day 3",60
same,survival rate,"[1]; 0.1 mg/kg s.c., day 4",60
same,survival rate,"[1]; 0.1 mg/kg s.c., day 5",60
same,survival rate,"[1]; 0.1 mg/kg s.c., day 6",60
same,survival rate,"[1]; 0.1 mg/kg s.c., day 7",40
same,survival rate,"[1]; 0.1 mg/kg s.c., day 8",40
same,survival rate,"[1]; 0.1 mg/kg s.c., day 9",20
same,survival rate,"[1]; 0.1 mg/kg s.c., day 10",20
same,survival rate,"[1]; 0.1 mg/kg s.c., day 11",20
same,survival rate,"[1]; 0.1 mg/kg s.c., day 12",20
same,survival rate,"[1]; 0.1 mg/kg s.c., day 13",20
same,survival rate,"[1]; 0.1 mg/kg s.c., day 14",20
same,T/C (%),[1]; 0.1 mg/kg s.c.,119%
same,survival rate,"[1]; 0.3 mg/kg s.c., day 0",100
same,survival rate,"[1]; 0.3 mg/kg s.c., day 1",100
same,survival rate,"[1]; 0.3 mg/kg s.c., day 2",100
same,survival rate,"[1]; 0.3 mg/kg s.c., day 3",100
same,survival rate,"[1]; 0.3 mg/kg s.c., day 4",100
same,survival rate,"[1]; 0.3 mg/kg s.c., day 5",100
same,survival rate,"[1]; 0.3 mg/kg s.c., day 6",100
same,survival rate,"[1]; 0.3 mg/kg s.c., day 7",80
same,survival rate,"[1]; 0.3 mg/kg s.c., day 8",80
same,survival rate,"[1]; 0.3 mg/kg s.c., day 9",80
same,survival rate,"[1]; 0.3 mg/kg s.c., day 10",80
same,survival rate,"[1]; 0.3 mg/kg s.c., day 11",80
same,survival rate,"[1]; 0.3 mg/kg s.c., day 12",80
same,survival rate,"[1]; 0.3 mg/kg s.c., day 13",80
same,survival rate,"[1]; 0.3 mg/kg s.c., day 14",80
same,T/C (%),[1]; 0.3 mg/kg s.c.,216%
same,survival rate,"[1]; 1 mg/kg s.c., day 0",100
same,survival rate,"[1]; 1 mg/kg s.c., day 1",100
same,survival rate,"[1]; 1 mg/kg s.c., day 2",100
same,survival rate,"[1]; 1 mg/kg s.c., day 3",100
same,survival rate,"[1]; 1 mg/kg s.c., day 4",100
same,survival rate,"[1]; 1 mg/kg s.c., day 5",100
same,survival rate,"[1]; 1 mg/kg s.c., day 6",100
same,survival rate,"[1]; 1 mg/kg s.c., day 7",100
same,survival rate,"[1]; 1 mg/kg s.c., day 8",100
same,survival rate,"[1]; 1 mg/kg s.c., day 9",100
same,survival rate,"[1]; 1 mg/kg s.c., day 10",100
same,survival rate,"[1]; 1 mg/kg s.c., day 11",100
same,survival rate,"[1]; 1 mg/kg s.c., day 12",100
same,survival rate,"[1]; 1 mg/kg s.c., day 13",80
same,survival rate,"[1]; 1 mg/kg s.c., day 14",80
same,T/C (%),[1]; 1 mg/kg s.c.,235%
"C[C@@H](n1ccc(-c2ccccn2)cc1=O)[C@](O)(Cn1cncn1)c1ccc(F)cc1F [I-8, 1′-[(1R,2R)-2-(2,4-difluorophenyl)-2-hydroxy-1-methyl-3-(1,2,4-triazol-1-yl)propyl]-2,4′-bipyridin-2′-one]",MIC,[2],30 µg/mL
same,MIC,[3],0.1 µg/mL
same,MIC,[4],0.3 µg/mL
same,MIC,[5],1 µg/mL
same,MIC,[6],100 µg/mL
same,MIC,[7],10 µg/mL
